# In patent US20070054868A1, “Synergistic polyphenol compounds, compositions thereof, and uses thereof” (The Trustees of Columbia University in the City of New York, priority 2005, published 2007):
# Tested on: EGFR, ERK1, ERK2, and AKT
# Test: Phosphorylation of signaling proteins in HT29 cells
# Assay type: cell-based, human
# Procedure: These effects were detected with as little as […] of EGCG, and within 5 minutes. Phosphorylation of EGFR, ERK1, ERK2, and AKT were suppressed in cells treated with methyl-β-cyclodextrin, which depletes plasma membrane cholesterol. […] In addition, the inhibitory effect of EGCG on phosphorylation of EGFR was not blocked by the addition of cholesterol on the growth medium. These findings provide evidence that EGCG can alter membrane domain organization in colon cancer cells ant that this is not due to cholesterol depletion. It was noted that pre-treatment of the cells with EGCG or Poly E inhibited the binding of Alexa 488-labeled EGF to the cell surface receptor EGFR.
substance,measurement,value
methyl-β-cyclodextrin [reference compound],"phosphorylation of EGFR, ERK1, ERK2, and AKT",suppressed
